Source: patent publication US20230265094A1, “RIPK1 INHIBITORS AND METHODS OF USE” (Merck Sharp & Dohme LLC, priority 2020, published 2023)
Counter-ions that a name gives are not always drawn.

The molecules below were run against T1, RIPK1 (Homo sapiens, UniProt Q13546) (assay: RIPK1-ADP-Glo enzymatic assay). Conditions: ADP-Glo luminescent ADP detection; 25 nM GST-RIPK1 kinase domain (residues 1-327), 300 μM ATP, dephosphorylated-MBP substrate; 30 min pre-incubation, 150 min reaction.
T1 construct: recombinant GST-RIPK1 kinase domain (residues 1-327) enzyme produced from baculovirus-transfected Sf21 cells; host or cells: baculovirus-transfected Sf21 insect cells
T1 sequence (Q13546 1-327): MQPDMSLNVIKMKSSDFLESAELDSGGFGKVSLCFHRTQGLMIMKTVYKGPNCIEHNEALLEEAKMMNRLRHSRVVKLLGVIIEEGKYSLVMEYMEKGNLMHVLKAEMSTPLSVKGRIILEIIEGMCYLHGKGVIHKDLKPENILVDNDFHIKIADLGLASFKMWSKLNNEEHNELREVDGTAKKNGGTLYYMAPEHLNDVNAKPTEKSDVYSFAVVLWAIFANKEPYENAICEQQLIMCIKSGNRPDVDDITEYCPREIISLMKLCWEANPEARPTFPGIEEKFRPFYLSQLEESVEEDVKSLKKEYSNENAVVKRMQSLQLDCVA
Assay type: biochemical
How it was run: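 GST-RIPK1 kinase domain (residues 1-327, Sf21-expressed), 25 nM final, pre-incubated 30 min with compound (10-point 1:3 series from 100000 nM), then reacted 150 min with 300 μM ATP and 3 μM dephosphorylated MBP in HEPES pH 7.3 buffer. ADP read by ADP-Glo luminescence; EC50 from four-parameter fit.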

| SMILES | EC50 |
| --- | --- |
| Cc1ncc([C@@H]2CC=NN2C(=O)N2C[C@H](Oc3ccc(F)cc3)[C@@H]2C)cc1F [Example 2.19, ((S)-5-(5-fluoro-6-methylpyridin-3-yl)-4,5-dihydro-1H-pyrazol-1-yl)((2S,3S)-3-(4-fluorophenoxy)-2-methylazetidin-1-yl)methanone] | 12.3 nM |
| Cc1ncnc(OC2CN(C(=O)N3N=CC[C@H]3c3cc(F)cc(F)c3)C2)c1C [Example 3.3, (S)-(5-(3,5-difluorophenyl)-4,5-dihydro-1H-pyrazol-1-yl)(3-((5,6-dimethylpyrimidin-4-yl)oxy)azetidin-1-yl)methanone, TFA salt] | 75.9 nM |
| N#Cc1cc(OC2CN(C(=O)N3N=CC[C@H]3c3cc(F)cc(F)c3)C2)ccn1 [Example 3.1, (S)-4-((1-(5-(3,5-difluorophenyl)-4,5-dihydro-1H-pyrazole-1-carbonyl)azetidin-3-yl)oxy)picolinonitrile, TFA Salt] | 6.6 nM |
| O=C(N1CC(Oc2ccc(F)cc2)C1)N1N=CC[C@H]1c1cc(F)cc(F)c1 [Example 1.50, (S)-(5-(3,5-difluorophenyl)-4,5-dihydro-1H-pyrazol-1-yl)(3-(4-fluorophenoxy)azetidin-1-yl)methanone] | 7 nM |
| O=C(N1CC(Cc2ccccc2)C1)N1N=CC[C@H]1c1cc(F)cc(F)c1 [Example 1.14, (S)-(3-benzylazetidin-1-yl)(5-(3,5-difluorophenyl)-4,5-dihydro-1H-pyrazol-1-yl)methanone, TFA salt] | 6.1 nM |
| O=C(N1CC2(C1)CN(c1cnccn1)C2)N1N=CC[C@H]1c1cc(F)cc(F)c1 [Example 1.35, (S)-(5-(3,5-difluorophenyl)-4,5-dihydro-1H-pyrazol-1-yl)(6-(pyrazin-2-yl)-2,6-diazaspiro[3.3]heptan-2-yl)methanone] | 5150 nM |
| C[C@H]1[C@@H](Oc2ccnc(C#N)c2)CN1C(=O)N1N=CC[C@H]1c1cc(F)cc(F)c1 [Example 2.36, 4-(((25,3S)-1-((S)-5-(3,5-difluorophenyl)-4,5-dihydro-1H-pyrazole-1-carbonyl)-2-methylazetidin-3-yl)oxy)picolinonitrile] | 20.5 nM |
| Cc1nc(OC2CN(C(=O)N3N=CC[C@H]3c3cc(F)cc(F)c3)C2)cc(C(C)(C)O)n1 [Example 3.7, (S)-(5-(3,5-difluorophenyl)-4,5-dihydro-1H-pyrazol-1-yl)(3-((6-(2-hydroxypropan-2-yl)-2-methylpyrimidin-4-yl)oxy)azetidin-1-yl)methanone, TFA salt] | 1490 nM |
| CS(=O)(=O)C1CN(C(=O)N2N=CC[C@H]2c2cc(F)cc(F)c2)C1 [Example 1.54, (S)-(5-(3,5-difluorophenyl)-4,5-dihydro-1H-pyrazol-1-yl)(3-(methylsulfonyl)azetidin-1-yl)methanone] | 4230 nM |
